Test results reported in patent publication US3970648A, “2-[2-(5-Nitro-2-furyl)vinyl]-4-(anilino)quinazolines” (Diamond Shamrock Corporation, priority 1974, dated 1976).

What was measured:
[1] = Growth rate and feed efficiency in swine, Example XIII (Table VIII); assay type: in vivo, weanling pigs; conditions: 25 g/T
Description: Thirty-six weanling pigs weighing approximately 30 pounds each in good physical condition and originating from a common source were used in these tests. The pigs were allocated into sex and weight equalized pens of six pigs each. A 1 week period was allowed for acclimatization before testing. Three replicates of six pigs were fed the basal ration described below, and three replicates were fed the same basal ration supplemented with 25 g/T of the product of Example I.
The basal ration was a 17% commercial corn-soya pelletized formulation which was free of antibiotic and drug components. Composition of the basal ration formulation was: […]
The rations were offered ad libitum from six bushel self-feeders with a continuous supply of fresh water. The same ration formulations were used throughout the 6 week feeding period. Individual pig weighing were made after 0, 2, 4 and 6 (termination) week periods. Feed consumption records were kept on a pen basis, with feed efficiency conversion being compiled at the end of the second, fourth and sixth (termination) week of feeding. Complete morbidity and mortality records were kept.

[2] = Growth promotion in chicks at 25 g/T, Example X (Table IV); assay type: in vivo, broiler cross chicks; conditions: 25 g/T
Description: This example compares growth promotion activity of the product of Example I with other growth promotants at a concentration of 25 g/T in the Basal Ration described in Example VII. The other growth promotants include the product described in Example I of U.S. Pat. No. 3,542,784 -- Burch and quinoxaline-1,4-dioxide. Day old broiler cross chicks were weight equalized into groups of eight chicks each, and four replicates of eight chicks each were fed the experimental rations over a 4 week period.

[3] = 6 weeks, mean of three replicates

O=[N+]([O-])c1ccc(C=Cc2nc(Nc3ccc(O)cc3)c3ccccc3n2)o1 [Example I, 2-[2-(5-nitro-2-furyl)vinyl]-4-(p-hydroxyanilino)quinazoline]
Improved Response Over Basal Ration: Feed Efficiency ([1]; 6 weeks): +2.4%
Improved Response Over Basal Ration: Gain ([1]; 6 weeks): +9.9%
feed efficiency (in words) ([1]; 6 weeks): enhanced feed efficiency
growth improvement (in words) ([1]; 6 weeks): very substantial growth improvement
Avg. Daily Gain [1, 3]: 1.537
Feed/lb. Gain [1, 3]: 2.507
Avg. Daily Gain ([1]; 6 weeks, replicate a): 1.567
Feed/lb. Gain ([1]; 6 weeks, replicate a): 2.722
Avg. Daily Gain ([1]; 6 weeks, replicate b): 1.567
Feed/lb. Gain ([1]; 6 weeks, replicate b): 2.392
Avg. Daily Gain ([1]; 6 weeks, replicate c): 1.476
Feed/lb. Gain ([1]; 6 weeks, replicate c): 2.406
Avg. 6 Wk. Wt. Per Pig ([1]; replicate a): 97.8
Avg. 6 Wk. Wt. Per Pig ([1]; replicate b): 97.6
Avg. 6 Wk. Wt. Per Pig ([1]; replicate c): 93.7
effect on feed efficiency (in words) [2]: strongest response in growth rate and feed efficiency
growth response (in words) [2]: strongest response in growth rate and feed efficiency
